Read-outs that look alike come from different tables or passages of the source. Where no end group is shown, it is not given here.
Key:
[1] = tested on: T-cells from PMBCs of healthy donors; assay: T-cell proliferation after stimulation of PMBCs with mixture fsp10, fsp11 and fsp13 (Example 8); type: cell-based, human; details: donor 1, one round of in vitro stimulation (14 days), 10 μM; FIG. 19
Protocol: Using a similar procedure to that used in Examples 4 and 7 above, PMBCs from four healthy donors were stimulated in vitro with a peptide mixture containing equimolar amounts (10 uM) of fsp10 (SEQ ID NO: 28), fsp11 (SEQ ID NO: 29) and fsp13 (SEQ ID NO: 31).
After one round of stimulation (14 days), T-cells were harvested and tested for recognition of the peptide mixture, using single peptide concentrations of 10 μM. T-cell proliferation was measured as counts per minute (CPM) after uptake of ^3H-thymidine in a standard T cell proliferation assay.
The PMBCs from the four healthy donors underwent a second round of in vitro stimulation, and T-cells were again harvested and tested for proliferation against the peptide mixture and the individual peptides. […] While it has, in the past, been considered that a SI value of greater than 2 is the criterion for indicating a T-cell response in a T-cell proliferation assay, this is only the case in subjects who have been vaccinated prior to the T-cell proliferation assay. Where a healthy subject has not been vaccinated before the T-cell proliferation assay (as in the present T-cell proliferation assay), it is not expected that a SI value of 2 or greater will be achieved. Therefore, in non-vaccinated, healthy subjects, an increase in the SI value above 1 is indicative of a T-cell response.

[2] = tested on: T-cells from PMBCs of healthy donors; assay: T-cell proliferation after stimulation of PMBCs with mixture fsp17, fsp15 and fsp16 (Example 9); type: cell-based, human
Protocol: Using a similar procedure to that used in Examples 4 and 7 above, PMBCs from four healthy donors were stimulated in vitro with a peptide mixture containing equimolar amounts (10 uM) of fsp17 (SEQ ID NO: 126), fsp15 (SEQ ID NO: 127) and fsp16 (SEQ ID NO: 128), which are shown in Table 15, below. These peptides have the non-chiral amino acid glycine at their C-terminal, which can serve as a linker for conjugation of the peptides to other molecules. It is expected that this C-terminal glycine will not create any new T-cell epitopes which will change the specificity of the induced T-cells.
After one round (14 days) of in vitro stimulation, T-cells were harvested and tested for recognition of the peptide mixture or individual peptides, using a concentration of 10 μM of each peptide. T-cell proliferation was measured as counts per minute (CPM) after uptake of ^3H-thymidine in a standard T cell proliferation assay.
The PMBCs from the four healthy donors underwent a second round of in vitro stimulation, and T-cells were again harvested and tested for proliferation against the peptide mixture and the individual peptides.

T cells = details: cited from earlier work
[3] = tested on: colorectal cancer cell line HCT116; details: Linnebacher et al.; HCT116 carries the corresponding frameshift mutation; cited from earlier work
[4] = type: physicochemical
Protocol: The peptide was difficult to dissolve and it was attempted to dissolve the crude fsp5 (SEQ ID NO: 19) (˜150 mg) in approximately 4 ml 50% MeCN in water under gentle heating.
Another batch of fsp5 (SEQ ID NO: 19) was prepared, dissolved in neat DMSO under gentle heating and purified by preparative HPLC. Again, only very small amounts of purified fsp5 (SEQ ID NO: 19) were obtained.

[5] = type: physicochemical; remark: listed apart in the source
Protocol: A batch of fsp5 (SEQ ID NO: 19) was prepared by solid phase peptide synthesis (SPPS) by using FMOC chemistry and Prelude synthesizer (Gyros Protein Technologies Inc., USA). The crude peptide was analysed by UPLC and MS. […] UPLC system: Column; Acquity UPLC BEH C18 […], detection; PDA 210-500 nm, solvent A); 0.1% TFA in water, solvent B; 0.1% TFA in MeCN, gradient: 20-70% B (2-10 minutes, linear).
When the purity of the small amount of purified fsp5 (SEQ ID NO: 19) was reassessed by UPLC after lyophilisation, the purity had dropped from around 90% to below 50% as shown in FIG. 4.

[6] = tested on: T cells (PBMC) from healthy donors; assay: T-cell proliferation (3H-thymidine, SI) after in vitro stimulation of PBMC with cocktail fsp2+fsp4 (Example 4); type: cell-based, human; design: T cell proliferation (stimulation index, SI): immunogenicity: dose or concentration left out as unconfirmed
Protocol: Fresh buffy coats from four healthy donors were obtained from a blood bank.
Peripheral blood mononuclear cells (PBMC) isolated from fresh buffy coats from four healthy donors were counted and suspended in DC medium to 15*10^6 cells/ml, and subsequently diluted with DC-medium to 4*10^6 cells/ml (Table 6).
Four 24-well plates were used for each donor, with 4*10^6 cells per well (each well has a volume of 1 ml).
Peptide cocktail: Solution of peptides fsp2+fsp4, containing […] of each peptide. 40 μl peptide solution was added to each well.
The plates were incubated in a cell incubator for 14 days (37° C., 5% CO2). IL-2 and IL-7 were added on day 3. The cells were inspected daily.
Test peptides: fsp2+fsp4 (SEQ ID NOs: 21 and 23), fsp1 (SEQ ID NO: 20), fsp2 (SEQ ID NO: 21), fsp3 (SEQ ID NO: 22), fsp4 (SEQ ID NO: 23), fsp5 (SEQ ID NO: 19).
Negative controls: T cells, T cells+APC (without addition of test peptides)
Cells and reagents were added to plate wells (in triplicate) as described in Tables 8 and 9 below. The total volume added to each well was 0.20 ml. • T cells (PBMC): 50 000 cells/well (0.25*10^6 cells/ml) • APC: Irradiated (30 Gy, 8 minutes) autologous feeder cells: 50 000 cells/well • (fspx): 0.2 nmol peptide/well (each peptide), concentration: […] peptide. (fsp was dissolved in DMSO before dilution to correct concentration)
The plates were incubated in a cell incubator for 48 hours (37° C., 5% CO2).
After incubation for 48 hours, 20 μl 3H-tThymidine solution (5 Ci/ml) was added to each well and the plates were incubated for approximately 17 hours (37° C., 5% CO2).
After 17 hours the cells were harvested (Unifilters) and dried on the filters at 45° C. until completely dry. After covering the bottom of the Unifilters with adhesive covers (delivered with the Unifilters) 25 μl micro scintillation liquid was added to each well, the plate was covered with TopSeal and 3H-Thymidine uptake was measured as counts per minute (CPM) using a microplate scintillation counter.
The T cell proliferation results after the first round of in vitro stimulation with the cocktail of fsp2 and fsp4 peptides are presented as stimulation index (SI) in FIG. 10. SI=mean CPM (triplicates) of (T cells+APC+test peptide(s)) divided by mean CPM (triplicates) of (T cells+APC). SI>1 indicates an increase in T-cell proliferation and SI 2 is a clear sign of immunogenicity.
PBMCs harvested after the first in vitro stimulation were re-stimulated in vitro according to the protocol set out above, with 2×10^6 cells per well. T-cell proliferation was tested according to the protocol set out above.

[7] = second round of in vitro stimulation, FIG. 22

KKTLRNHLFLIRWIILTFLQKILK (listed as Homo sapiens) [fsp10, peptide of −1a frameshifted KIAA2018]
T-cell response (proliferation, CPM) [1]: did not stimulate T-cells

KKKGRRNRIPAVLRTEGEPLHTPSVGMRETG (listed as Homo sapiens) [fsp15, peptide of −1a frameshifted ASTE1]
T-cell induction (proliferation) ([2]; one round (14 days) of in vitro stimulation, 10 μM, FIG. 21): T-cells are induced
T-cell induction (proliferation) [2, 7]: T-cells were induced

KGIMKEKKSLVRLSSCVPVALMSAMTG (not fully specified) [fsp17, modified peptide of −1a frameshifted TGFβR2]
T-cell induction (proliferation) [2, 7]: T-cells were induced

RLSSCVPVA (listed as Homo sapiens) [p573, prior art peptide of mutTGFβR2]
immunogenicity (T cells; EP1078000 FIG. 14, four rounds of stimulation of the T-cells): not immunogenic
immunogenicity (T cells; Linnebacher et al., FIG. 1): immunogenic
activating specific CTLs (T cells; Linnebacher et al., HLA-A2.1 restricted, in vitro): capable of activating specific CTLs
immunogenicity (T cells; Saeterdal et al., 2001, Cancer Immunol Immunother): immunogenic
generation of CTL line and CTL clones (T cells; Saeterdal et al., Cancer Immunol Immunother 2001): able to generate a CTL line and several CTL clones
lysis of colorectal cancer cell line HCT116 [3]: able to lyse the colorectal cancer cell line HCT116

KCIMKEKKSLVRLSSCVPVALMSAMTTSSSQKN (listed as Homo sapiens) [fsp5, optimised consensus peptide of TGFβR2]
effect of adding water to DMSO solution [4]: precipitation of the peptide
solubility [4]: no clear solution could be obtained
purity by UPLC after lyophilisation (stability) [5]: below 50%
relative immunogenicity ([6]; FIGS. 10 and 11, compared with fsp3 and fsp4): more immunogenic than peptides which do not comprise amino acids from the wild-type sequence of TGFβR2
T cell proliferation (stimulation index, SI): immunogenicity ([6]; first and second round of in vitro stimulation with cocktail of fsp2 and fsp4, four healthy donors, FIGS. 10-12): stimulated T-cells induced from PMBCs

STCPTYVKGSPSCPLRDLQ (listed as Homo sapiens) [fsp13, peptide of −1a frameshifted SLC22A9]
T-cell response (proliferation, CPM) [1]: did not stimulate T-cells

Reference: US20230203130A1, “A PEPTIDE COCKTAIL” (Hubro Therapeutics AS, priority 2020, published 2023)
